Measurements: patent US6570018B2 (Pfizer Inc, priority 2000, dated 2003)
Structures can show the parent of a compound that is named as a salt.

Legend:
[1] = stability of crystalline form versus the anhydrous mesylate salt; assay type: physicochemical; settings: compared with the anhydrous mesylate salt

## C[C@@H](C(=O)c1ccc(OCc2ccccc2)cc1)N1CCC(O)(c2ccccc2)CC1
other
  melting point: 102.5 to 103.8 °C

## C[C@@H]([C@@H](O)c1ccc(O)cc1)N1CCC(O)(c2ccccc2)CC1 [mesylate salt trihydrate, (1S,2S)-1-(4-Hydroxyphenyl)-2-(4-hydroxy-4-phenylpiperidino)-1-propanol, Methanesulfonate Salt Trihydrate]
[1]
  stability of crystalline form / shelf life: more stable crystalline form than the anhydrous mesylate salt
